# Laboratory results taken from ChEMBL document CHEMBL4842313, “Combating multi-drug resistant malaria parasite by inhibiting falcipain-2 and heme-polymerization: Artemisinin-peptidyl vinyl phosphonate hybrid molecules as new antimalarials” (Eur J Med Chem, 2021).
# The source made the active and inactive calls. No cut-off for these calls is given here.
# What was measured:
# Plasmodium falciparum [1] = assay: Antimalarial activity against Plasmodium falciparum 3D7 assessed as parasite growth inhibition incubated for 48 hrs by SYBR green DNA fluorescent dye-binding assay; assay type: functional, organism-based; conditions: 3D7, 48 h
# A549 = assay: Cytotoxicity against human A549 cells assessed as reduction in cell viability measured after 24 hrs by WST-1 assay; assay type: cell-based; conditions: A549, 24 h
# Falcipain 2 [2] = target: T1, Falcipain 2 (Plasmodium falciparum, UniProt Q9N6S8); assay: Inhibition of recombinant Plasmodium falciparum falcipain-2 expressed in Escherichia coli M15 assessed as reduction in free AMC release using Z-FR-AMC as a substrate measured over 30 mins by fluorometric assay
# T1 sequence (Q9N6S8 whole entry): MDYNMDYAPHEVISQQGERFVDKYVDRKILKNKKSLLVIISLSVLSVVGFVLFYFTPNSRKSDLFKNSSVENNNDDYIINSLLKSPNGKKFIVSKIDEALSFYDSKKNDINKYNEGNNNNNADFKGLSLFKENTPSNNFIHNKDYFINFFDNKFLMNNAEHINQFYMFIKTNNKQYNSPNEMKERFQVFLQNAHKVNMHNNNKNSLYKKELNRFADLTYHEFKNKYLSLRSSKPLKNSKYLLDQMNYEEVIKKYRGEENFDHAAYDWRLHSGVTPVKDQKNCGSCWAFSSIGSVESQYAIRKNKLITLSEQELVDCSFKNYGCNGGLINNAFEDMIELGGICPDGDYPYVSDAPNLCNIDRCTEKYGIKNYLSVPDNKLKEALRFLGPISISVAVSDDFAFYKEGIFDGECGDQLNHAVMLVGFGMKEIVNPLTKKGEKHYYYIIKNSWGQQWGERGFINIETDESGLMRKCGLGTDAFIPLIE
# Falcipain 2 [3] = target: T1, Falcipain 2; assay: Inhibition of recombinant Plasmodium falciparum falcipain-2 expressed in Escherichia coli M15 assessed as reduction in free AMC release using Z-FR-AMC as a substrate measured over 30 mins by Cheng-prusoff equation analysis
# Plasmodium falciparum [4] = assay: Antimalarial activity against asexual blood stage of Plasmodium falciparum assessed as abnormalities in food vacuole observed upto 60 hrs post invasion; assay type: functional, organism-based; conditions: time hrs <=60
# [5] = target: T2, Heme ligase (Plasmodium falciparum (isolate 3D7)) (UniProt Q8IL04); assay: Inhibition of recombinant Plasmodium falciparum heme detoxification protein expressed in Escherichia coli M15 assessed as reduction in hemozoin formation using heme as substrate measured after 3 hrs relative to control; conditions: concentration not given here
# T2 sequence (whole entry): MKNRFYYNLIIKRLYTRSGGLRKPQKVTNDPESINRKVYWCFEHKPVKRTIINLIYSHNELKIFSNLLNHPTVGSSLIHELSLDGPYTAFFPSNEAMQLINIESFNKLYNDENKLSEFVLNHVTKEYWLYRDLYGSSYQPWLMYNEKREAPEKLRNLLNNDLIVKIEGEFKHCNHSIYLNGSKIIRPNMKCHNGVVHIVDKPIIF
# Plasmodium falciparum [6] = assay: Antimalarial activity against chloroquine and pyrimethamine-resistant Plasmodium falciparum 7G8 assessed as parasite growth inhibition incubated for 48 hrs by SYBR green DNA fluorescent dye-binding assay; assay type: functional, organism-based; conditions: 7G8, 48 h
# Plasmodium falciparum [7] = assay: Antimalarial activity against chloroquine, pyrimethamine and mefloquine-resistant Plasmodium falciparum Dd2 assessed as parasite growth inhibition incubated for 48 hrs by SYBR green DNA fluorescent dye-binding assay; assay type: functional, organism-based; conditions: Dd2, 48 h
# Plasmodium falciparum [8] = assay: Antimalarial activity against asexual blood stage of Plasmodium falciparum assessed as inhibition of mature schizonts development at EC50 observed at 48 hrs post invasion; assay type: functional, organism-based
# Cytochrome P450 = assay: Inhibition of CYP450 (unknown origin); assay type: ADME, protein assay; conditions: human
# [9] = Drug degradation in human plasma; assay type: ADME, cell-free
# Plasmodium falciparum [10] = assay: Antimalarial activity against laboratory adapted artemisinin-resistant Plasmodium falciparum RT4974 assessed as inhibition of the survival of ring-stage parasite measured after 66 hrs by ring survival assay; assay type: functional, organism-based
# Plasmodium berghei [11] = assay: Antimalarial activity against blood stage of Plasmodium berghei infected in BALB/c mouse assessed as parasite clearance at 12.5 mg/kg, ip administered once daily for 4 consecutive days measured on day 10 by Giemsa staining based assay (reference value: 0%); assay type: functional; conditions: time 10 day
# Plasmodium berghei [12] = assay: Antimalarial activity against blood stage of Plasmodium berghei infected in BALB/c mouse assessed as mouse survival time at 12.5 mg/kg, ip administered once daily for 4 consecutive days (reference value: 12 to 15 days); assay type: functional; conditions: time 4 day
# Plasmodium falciparum [13] = assay: Antimalarial activity against asexual blood stage of Plasmodium falciparum assessed as darkly stained dead parasites at EC50 observed at 60 hrs post invasion; assay type: functional, organism-based
# Plasmodium berghei [14] = assay: Antimalarial activity against blood stage of Plasmodium berghei infected in BALB/c mouse assessed as suppression of parasite growth at 12.5 mg/kg, ip administered once daily for 4 consecutive days measured on day 5 by Giemsa staining based assay; assay type: functional, organism-based; conditions: time 5.0 day
# Plasmodium berghei [15] = assay: Antimalarial activity against blood stage of Plasmodium berghei infected in BALB/c mouse assessed as suppression of parasite growth at 12.5 mg/kg, ip administered once daily for 4 consecutive days measured on day 6 by Giemsa staining based assay; assay type: functional, organism-based; conditions: time 6.0 day
compound,measurement,setting,value
CCOP(=O)(/C=C/[C@@H](NC(=O)[C@H](CC(C)C)NC(=O)[C@@H]1C[C@@H](O[C@H]2O[C@@H]3O[C@@]4(C)CC[C@H]5[C@H](C)CC[C@@H]([C@H]2C)[C@@]35OO4)CN1C(=O)OCc1ccccc1)c1ccccc1)OCC,EC50,Plasmodium falciparum [1],1.04 nM
C[C@H]1[C@@H](O)O[C@@H]2O[C@@]3(C)CC[C@H]4[C@H](C)CC[C@@H]1[C@@]24OO3 [ARTENIMOL],EC50,A549,> 25000 nM
same,IC50,Falcipain 2 [2],> 100000 nM
same,Ki,Falcipain 2 [3],Not Active
same,EC50,Plasmodium falciparum [1],4.97 nM
CCOP(=O)(/C=C/C(N)c1ccccc1)OCC (stereo not drawn),EC50,A549,> 30000 nM
same,IC50,Falcipain 2 [2],> 25000 nM
same,Ki,Falcipain 2 [3],Not Active
same,EC50,Plasmodium falciparum [1],> 100000 nM
COC(=O)[C@@H]1C[C@@H](O[C@H]2O[C@@H]3O[C@@]4(C)CC[C@H]5[C@H](C)CC[C@@H]([C@H]2C)[C@@]35OO4)CN1C(=O)OCc1ccccc1,IC50,Falcipain 2 [2],> 100000 nM
same,Ki,Falcipain 2 [3],Not Active
CCOP(=O)(/C=C/[C@H](NC(=O)[C@H](CC(C)C)NC(=O)[C@@H]1C[C@@H](O[C@H]2O[C@@H]3O[C@@]4(C)CC[C@H]5[C@H](C)CC[C@@H]([C@H]2C)[C@@]35OO4)CN1C(=O)OCc1ccccc1)c1ccccc1)OCC,Ki,Falcipain 2 [3],Not Active
same,EC50,Plasmodium falciparum [1],6.12 nM
CCOP(=O)(/C=C/C(NC(=O)[C@H](Cc1ccccc1)NC(=O)[C@@H]1C[C@@H](O[C@H]2O[C@@H]3O[C@@]4(C)CC[C@H]5[C@H](C)CC[C@@H]([C@H]2C)[C@@]35OO4)CN1C(=O)OCc1ccccc1)c1ccccc1)OCC (stereo partly drawn),IC50,Falcipain 2 [2],> 100000 nM
same,Ki,Falcipain 2 [3],Not Active
COC(=O)[C@H](CC(C)C)NC(=O)[C@H](CO[C@H]1O[C@@H]2O[C@@]3(C)CC[C@H]4[C@H](C)CC[C@@H]([C@H]1C)[C@@]24OO3)NC(=O)OCc1ccccc1,IC50,Falcipain 2 [2],> 100000 nM
same,Ki,Falcipain 2 [3],Not Active
COC(=O)[C@H](Cc1ccccc1)NC(=O)[C@H](CO[C@H]1O[C@@H]2O[C@@]3(C)CC[C@H]4[C@H](C)CC[C@@H]([C@H]1C)[C@@]24OO3)NC(=O)OCc1ccccc1,IC50,Falcipain 2 [2],> 100000 nM
same,Ki,Falcipain 2 [3],Not Active
COC(=O)[C@H](CC(C)C)NC(=O)[C@@H]1C[C@@H](O[C@H]2O[C@@H]3O[C@@]4(C)CC[C@H]5[C@H](C)CC[C@@H]([C@H]2C)[C@@]35OO4)CN1C(=O)OCc1ccccc1,IC50,Falcipain 2 [2],> 100000 nM
same,Ki,Falcipain 2 [3],Not Active
CCOP(=O)(/C=C/[C@H](NC(=O)[C@H](CC(C)C)NC(=O)[C@H](CO[C@H]1O[C@@H]2O[C@@]3(C)CC[C@H]4[C@H](C)CC[C@@H]([C@H]1C)[C@@]24OO3)NC(=O)OCc1ccccc1)c1ccccc1)OCC,EC50,Plasmodium falciparum [1],16.7 nM
COC(=O)[C@H](CO[C@H]1O[C@@H]2O[C@@]3(C)CC[C@H]4[C@H](C)CC[C@@H]([C@H]1C)[C@@]24OO3)NC(=O)OCc1ccccc1,IC50,Falcipain 2 [2],> 100000 nM
same,Ki,Falcipain 2 [3],Not Active
CCOP(=O)(/C=C/C(NC(=O)[C@H](CO[C@H]1O[C@@H]2O[C@@]3(C)CC[C@H]4[C@H](C)CC[C@@H]([C@H]1C)[C@@]24OO3)NC(=O)OCc1ccccc1)c1ccccc1)OCC (stereo partly drawn),IC50,Falcipain 2 [2],> 100000 nM
same,Ki,Falcipain 2 [3],Not Active
CCOP(=O)(/C=C/C(NC(=O)[C@H](CC(C)C)NC(=O)[C@@H]1C[C@@H](O[C@H]2O[C@@H]3O[C@@]4(C)CC[C@H]5[C@H](C)CC[C@@H]([C@H]2C)[C@@]35OO4)CN1C(=O)OCc1ccccc1)c1ccccc1)OCC (stereo partly drawn),Activity,Plasmodium falciparum [4],Active
same,EC50,A549,1280 nM
same,inhibition,[5],90%
same,EC50,Plasmodium falciparum [1],2.57 nM
same,EC50,Plasmodium falciparum [6],1.2 nM
same,EC50,Plasmodium falciparum [7],5.5 nM
same,Activity,Plasmodium falciparum [8],Active
same,inhibition (INH),Cytochrome P450,Active
same,Stabilty,[9],Unstable
same,Activity,Plasmodium falciparum [10],Active
same,Activity,Plasmodium berghei [11],100%
same,Survival,Plasmodium berghei [12],>60 days
same,Activity,Plasmodium falciparum [13],Active
same,Activity,Plasmodium berghei [14],inactive
same,Activity,Plasmodium berghei [15],Active
CCOP(=O)(/C=C/[C@@H](NC(=O)[C@H](Cc1ccccc1)NC(=O)[C@H](CO[C@H]1O[C@@H]2O[C@@]3(C)CC[C@H]4[C@H](C)CC[C@@H]([C@H]1C)[C@@]24OO3)NC(=O)OCc1ccccc1)c1ccccc1)OCC,EC50,Plasmodium falciparum [1],0.95 nM
CCOP(=O)(/C=C/C(NC(=O)[C@H](Cc1ccccc1)NC(=O)[C@H](CO[C@H]1O[C@@H]2O[C@@]3(C)CC[C@H]4[C@H](C)CC[C@@H]([C@H]1C)[C@@]24OO3)NC(=O)OCc1ccccc1)c1ccccc1)OCC (stereo partly drawn),Activity,Plasmodium falciparum [4],Active
same,EC50,A549,14600 nM
same,inhibition,[5],80%
same,EC50,Plasmodium falciparum [1],2.7 nM
same,EC50,Plasmodium falciparum [6],0.47 nM
same,EC50,Plasmodium falciparum [7],1.9 nM
same,Activity,Plasmodium falciparum [8],Active
same,inhibition (INH),Cytochrome P450,Active
same,Stabilty,[9],Unstable
same,Activity,Plasmodium falciparum [10],Active
same,Activity,Plasmodium berghei [11],80%
same,Survival,Plasmodium berghei [12],>60 days
same,Activity,Plasmodium falciparum [13],Active
same,Activity,Plasmodium berghei [14],inactive
same,Activity,Plasmodium berghei [15],Active
CCOP(=O)(/C=C/[C@@H](NC(=O)[C@H](CC(C)C)NC(=O)[C@H](CO[C@H]1O[C@@H]2O[C@@]3(C)CC[C@H]4[C@H](C)CC[C@@H]([C@H]1C)[C@@]24OO3)NC(=O)OCc1ccccc1)c1ccccc1)OCC,EC50,Plasmodium falciparum [1],10.9 nM
CCOP(=O)(/C=C/C(NC(=O)[C@@H]1C[C@@H](O[C@H]2O[C@@H]3O[C@@]4(C)CC[C@H]5[C@H](C)CC[C@@H]([C@H]2C)[C@@]35OO4)CN1C(=O)OCc1ccccc1)c1ccccc1)OCC (stereo partly drawn),IC50,Falcipain 2 [2],> 100000 nM
same,Ki,Falcipain 2 [3],Not Active
C[C@@H]1CC[C@H]2[C@@H](C)C(=O)O[C@@H]3O[C@@]4(C)CC[C@@H]1[C@]32OO4 [ARTEMISININ],EC50,Plasmodium falciparum [1],27 nM
same,EC50,Plasmodium falciparum [6],18 nM
same,EC50,Plasmodium falciparum [7],15 nM
same,Activity,Plasmodium berghei [11],0%
same,Survival,Plasmodium berghei [12],15 days
CCOP(=O)(/C=C/[C@H](NC(=O)[C@H](Cc1ccccc1)NC(=O)[C@H](CO[C@H]1O[C@@H]2O[C@@]3(C)CC[C@H]4[C@H](C)CC[C@@H]([C@H]1C)[C@@]24OO3)NC(=O)OCc1ccccc1)c1ccccc1)OCC,EC50,Plasmodium falciparum [1],2.03 nM
COC(=O)[C@H](Cc1ccccc1)NC(=O)[C@@H]1C[C@@H](O[C@H]2O[C@@H]3O[C@@]4(C)CC[C@H]5[C@H](C)CC[C@@H]([C@H]2C)[C@@]35OO4)CN1C(=O)OCc1ccccc1,IC50,Falcipain 2 [2],> 100000 nM
same,Ki,Falcipain 2 [3],Not Active
CCOP(=O)(/C=C/C(NC(=O)[C@H](CC(C)C)NC(=O)[C@H](CO[C@H]1O[C@@H]2O[C@@]3(C)CC[C@H]4[C@H](C)CC[C@@H]([C@H]1C)[C@@]24OO3)NC(=O)OCc1ccccc1)c1ccccc1)OCC (stereo partly drawn),Activity,Plasmodium falciparum [4],Active
same,EC50,A549,3820 nM
same,inhibition,[5],60%
same,EC50,Plasmodium falciparum [1],3.3 nM
same,EC50,Plasmodium falciparum [6],0.23 nM
same,EC50,Plasmodium falciparum [7],3.5 nM
same,Activity,Plasmodium falciparum [8],Active
same,inhibition (INH),Cytochrome P450,Active
same,Stabilty,[9],Unstable
same,Activity,Plasmodium falciparum [10],Active
same,Activity,Plasmodium berghei [11],100%
same,Survival,Plasmodium berghei [12],>60 days
same,Activity,Plasmodium falciparum [13],Active
same,Activity,Plasmodium berghei [14],inactive
same,Activity,Plasmodium berghei [15],Active
